Measured values published in patent US7435837B2, “Dihydrobenzofuranyl alkanamine derivatives and methods for using same” (Wyeth, priority 2003, dated 2008).

Legend:
[1] = molecular target: T1, human 5-hydroxytryptamine-2C (h5-HT2C) receptor (Homo sapiens, UniProt P28335); experiment: [125I]DOI binding to membranes of CHO cells expressing the human 5-HT2C receptor; conditions: [125I]DOI radioligand, CHO cell membranes, room temperature 60 min; read-out: 5-HT2C Affinity Ki
T1 construct: expressed in transfected cells; host or cells: CHO (Chinese Hamster Ovary) cells; membranes
T1 sequence (P28335 33-458): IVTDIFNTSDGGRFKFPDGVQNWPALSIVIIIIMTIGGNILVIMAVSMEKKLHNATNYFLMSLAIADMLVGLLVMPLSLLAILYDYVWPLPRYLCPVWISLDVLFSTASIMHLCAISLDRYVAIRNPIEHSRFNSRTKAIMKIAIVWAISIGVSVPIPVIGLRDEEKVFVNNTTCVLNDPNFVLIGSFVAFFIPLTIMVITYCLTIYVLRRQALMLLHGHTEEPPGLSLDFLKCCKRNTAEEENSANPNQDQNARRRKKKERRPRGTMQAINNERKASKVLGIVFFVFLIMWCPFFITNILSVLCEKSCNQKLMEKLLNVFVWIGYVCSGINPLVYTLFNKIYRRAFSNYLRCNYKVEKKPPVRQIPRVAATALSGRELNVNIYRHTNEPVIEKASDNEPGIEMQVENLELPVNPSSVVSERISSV

human 5-HT2C receptor = molecular target: T2, human 5-HT2C receptor (Homo sapiens, UniProt P28335); experiment: 5-HT2C receptor-stimulated calcium mobilization (FLIPR) in CHO cells; format: cell-based; conditions: for EC50: calcium mobilization, CHO cells stably expressing human 5-HT2C, read-out: 5-HT2C Function EC50; for 5-HT2C Function Emax (%) / Emax: percentage of the response observed with a maximally effective concentration of 5-HT; for Emax: CHO, read-out: 5-HT2C Function Emax (%);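 on all read-outs here: Fluo-3-AM fluorescence read on FLIPR every 1 s, agonist added after 10 baseline reads, response taken as peak minus lowest raw fluorescence count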
T2 sequence (P28335 33-458): T1 sequence (P28335 33-458)

Ki [1] [nM]	EC50 (human 5-HT2C receptor) [nM]	5-HT2C Function Emax (%) (human 5-HT2C receptor)	Emax (human 5-HT2C receptor) [%]	Structure (SMILES)
8	32	65	–	NCC1Cc2cc(F)cc(-c3ccccc3Cl)c2O1 (single isomer, unassigned; (-)) [Example 102, (−)-1-[7-(2-chlorophenyl)-5-fluoro-2,3-dihydro-1-benzofuran-2-yl]methanamine]
0.23	2	–	90	NCC1Cc2cccc(-c3cc(Cl)ccc3Cl)c2O1 (racemic) [Example 163, (±)-{[7-(2,5-dichlorophenyl)-2,3-dihydro-1-benzofuran-2-yl]methyl}amine]
0.3	0.4	–	90	Cc1ccccc1-c1c(F)ccc2c1OC(CN)C2 (racemic) [Example 395, (±)-{[6-fluoro-7-(2-methylphenyl)-2,3-dihydro-1-benzofuran-2-yl]methyl}amine]
6.1	28	–	70	CNCC1Cc2cccc(-c3cccc(OC)c3OC)c2O1 (racemic) [Example 423, (±)-[(N-methyl-1-[7-(2,3-dimethoxyphenyl)-2,3-dihydro-1-benzofuran-2-yl]methanamine]
0.34	132	90	–	CNCC1Cc2cc(C)cc(-c3cc(Cl)ccc3Cl)c2O1 (single isomer, unassigned; (-)) [Example 488, (−)-{[7-(2,5-dichlorophenyl)-5-methyl-2,3-dihydro-1-benzofuran-2-yl]methyl}methylamine]
14	50	–	100	COc1ccc(Cl)cc1-c1cccc2c1OC(CN)C2 (racemic) [Example 169, (±)-{[7-(5-chloro-2-methoxyphenyl)-2,3-dihydro-1-benzofuran-2-yl]methyl}amine]
21	89	–	80	CNCC1Cc2cc(Cl)cc(-c3cccc(F)c3F)c2O1 (racemic) [Example 463, (±)-{[5-chloro-7-(2,3-difluorophenyl)-2,3-dihydro-1-benzofuran-2-yl]methyl}methylamine]
1.5	93	–	70	CNCC1Cc2cccc(-c3ccc(OC)cc3)c2O1 (racemic) [Example 421, (±)-[(N-methyl-1-[7-(4-methoxyphenyl)-2,3-dihydro-1-benzofuran-2-yl]methanamine]
2	5	–	90	NCC1Cc2cccc(-c3ccsc3)c2O1 (single isomer, unassigned; (+)) [Example 45, (+)-1-(7-thien-3-yl-2,3-dihydro-1-benzofuran-2-yl)methanamine]
21	8	–	90	CNCC1Cc2cccc(-c3ccccc3OC)c2O1 (racemic) [Example 413, (±)-[(N-methyl-1-[7-(2-methoxyphenyl)-2,3-dihydro-1-benzofuran-2-yl]methanamine]
9	313	60	–	Cc1cccc(C)c1-c1cccc2c1OC(CN)C2 (single isomer, unassigned; (+)) [Example 58, (+)-1-[7-(2,6-dimethylphenyl)-2,3-dihydro-1-benzofuran-2-yl]methanamine]
0.8	20	–	90	NCC1Cc2cc(Cl)cc(-c3ccccc3Cl)c2O1 (racemic) [Example 87, (±)-1-[5-chloro-7-(2-chlorophenyl)-2,3-dihydro-1-benzofuran-2-yl]methanamine]
0.3	2	–	100	Cc1cc2c(c(-c3c(Cl)cccc3Cl)c1)OC(CN)C2 (racemic) [Example 302, (±)-{[7-(2,6-dichlorophenyl)-5-methyl-2,3-dihydro-1-benzofuran-2-yl]methyl}amine]
3.5	1	–	100	CNCC1Cc2cccc(-c3c(Cl)cccc3Cl)c2O1 (racemic) [Example 433, (±)-[(N-methyl-1-[7-(2,6-dichlorophenyl)-2,3-dihydro-1-benzofuran-2-yl]methanamine]

Second part, the compound before the results:

Structure (SMILES)	Ki [1] [nM]	EC50 (human 5-HT2C receptor) [nM]	5-HT2C Function Emax (%) (human 5-HT2C receptor)	Emax (human 5-HT2C receptor) [%]
CNCC1Cc2cc(F)cc(-c3cc(F)ccc3F)c2O1 (racemic) [Example 448, (±)-{[7-(2,5-difluorophenyl)-5-fluoro-2,3-dihydro-1-benzofuran-2-yl]methyl}methylamine]	7	78	–	70
Cc1cc2c(c(-c3cccc(Cl)c3)c1)OC(CN)C2 (racemic) [Example 288, (±)-{[7-(3-chlorophenyl)-5-methyl-2,3-dihydro-1-benzofuran-2-yl]methyl}amine]	7.1	38	–	100
Cc1cc2c(c(-c3ccccc3F)c1)OC(CN)C2 (racemic) [Example 283, (±)-{[7-(2-fluorophenyl)-5-methyl-2,3-dihydro-1-benzofuran-2-yl]methyl}amine]	1.2	6	–	100
Cc1cc2c(c(-c3cc(Cl)ccc3Cl)c1)OC(CN)C2 (racemic) [Example 300, (±)-{[7-(2,5-dichlorophenyl)-5-methyl-2,3-dihydro-1-benzofuran-2-yl]methyl}amine]	0.1	3	–	90
Cc1cc2c(c(-c3ccccc3C(F)(F)F)c1)OC(CN)C2 (racemic) [Example 287, (±)-({5-methyl-7-[2-(trifluoromethyl)phenyl[-2,3-dihydro-7-benzofuran-2-yl}methyl)amine]	0.13	21	–	90
CC(C)c1cccc2c1OC(CN)C2 (single isomer, unassigned; (+)) [Example 20, (+)-(7-isopropyl-2,3-dihydro-1-benzofuran-2-yl)methylamine]	24	178	70	–
Cc1cc2c(c(-c3ccc(Cl)cc3Cl)c1)OC(CN)C2 (single isomer, unassigned; (+)) [Example 299, (+)-{[7-(2,4-dichlorophenyl)-5-methyl-2,3-dihydro-1-benzofuran-2-yl]methyl}amine]	0.19	0.1	100	–
NCC1Cc2cc(F)cc(-c3ccccn3)c2O1 (racemic) [Example 205, (±)-[(5-fluoro-7-pyridin-2-yl-2,3-dihydro-1-benzofuran-2-yl)methyl]amine]	3	280	–	80
Cc1cc2c(c(-c3c(C)cccc3C)c1)OC(CN)C2 (racemic) [Example 301, (±)-{[7-(2,6-dimethylphenyl)-5-methyl-2,3-dihydro-1-benzofuran-2-yl]methyl}amine]	2	31	–	90
NCC1Cc2cc(F)cc(-c3ccccc3C(F)(F)F)c2O1 (racemic) [Example 108, (±)-1-{5-fluoro-7-[2-(trifluoromethyl)phenyl]-2,3-dihydro-1-benzofuran-2-yl}methanamine]	4	39	–	95
COc1cc2c(c(-c3cccc(C)c3C)c1)OC(CN)C2 (racemic) [Example 363, (±)-{[7-(2,3-dimethylphenyl)-5-methoxy-2,3-dihydro-1-benzofuran-2-yl]methyl}amine]	26	225	–	70
COc1ccc(-c2cc(Cl)cc3c2OC(CN)C3)c(OC)c1 (racemic) [Example 254, (±)-{[5-chloro-7-(2,4-dimethoxyphenyl)-2,3-dihydro-1-benzofuran-2-yl]methyl}amine]	0.89	11	–	90
CC(C)(C)c1cc(Cl)cc2c1OC(CN)C2 (single isomer, unassigned; (+)) [Example 29, (+)-1-(7-tert-butyl-5-chloro-2,3-dihydro-1-benzofuran-2-yl)methanamine]	35	229	80	–
NCC1Cc2cc(F)cc(-c3ccsc3)c2O1 (racemic) [Example 203, (±)-[(5-fluoro-7-thien-3-yl-2,3-dihydro-1-benzofuran-2-yl)methyl]amine]	8.5	187	–	80
NCC1Cc2cccc(C3CCCC3)c2O1 (single isomer, unassigned; (+)) [Example 10, (+)-(7-cyclopentyl-2,3-dihydro-1-benzofuran-2-yl)methylamine]	42	179	60	–
CNCC1Cc2cc(OC)cc(-c3ccc(F)cc3F)c2O1 (racemic) [Example 497, (±)-{[7-(2,4-difluorophenyl)-5-methoxy-2,3-dihydro-1-benzofuran-2-yl]methyl}methylamine]	37	315	–	70
NCC1Cc2cccc(Cc3ccccc3)c2O1 (single isomer, unassigned; (-)) [Example 17, (−)-1-(7-benzyl-2,3-dihydro-1-benzofuran-2-yl)methanamine]	66	100	70	–
COc1ccc(C)c(-c2cc(F)cc3c2OC(CN)C3)c1 (racemic) [Example 224, (±)-{[5-fluoro-7-(5-methoxy-2-methylphenyl)-2,3-dihydro-1-benzofuran-2-yl]methyl}amine]	18	455	–	70
